Laboratory results published in patent publication US9023407B2, “Plant extract for treating diabetes and process for making same” (Development Center for Biotechnology, priority 2012, dated 2015).
Marks after values point to notes of the source that are not given here.

Columns and labels:
Sprague-Dawley rats = experiment: Glucose tolerance test in normal rats; assay type: in vivo, rat; conditions: 10 mg/kg
Experimental: Twenty-six (26) Sprague-Dawley rats were divided into four groups: the placebo group (7 rats, to be administered with 10% Tween 20), the positive control group (7 rats, to be administered with glibenclamide), the 250 mg/kg HC group (6 rats, to be administered with 250 mg/kg ethanol extract of leaves and pseudostems of Hedychium coronarium Koening ), and the 750 mg/kg HC group (6 rats, to be administered with 750 mg/kg ethanol extract of the leaves and pseudostems of Hedychium coronarium Koening ). The rats were fasted for 7 hours and then administered with 250 mg/kg ethanol extract of leaves and pseudostems of Hedychium coronarium Koening (the 250 mg/kg HC group), 750 mg/kg ethanol extract of leaves and pseudostems of Hedychium coronarium Koening (the 750 mg/kg HC group), 10 mg/kg glibenclamide (the positive control group), or 10% Tween 20 (the placebo/control group). After 30 minutes, each rat was administered with glucose at a total amount of 5 g/kg, orally (2.5 g/kg) and subcutaneously (2.5 g/kg). Blood was drawn from each rat at the intervals of 0, 30, 60, 90 and 120 minutes for the measurement of glucose (mg/DL). […]
The test rats and procedure were as those in Example 1. However, in this example, 24 Sprague-Dawley rats were divided into four groups: the placebo group (6 rats, to be administered with water), the positive control group (6 rats, to be administered with 10 mg/kg glibenclamide), the 0.4 g/kg HC group (6 rats, to be administered with 0.4 g/kg water-ethanol extract of leaves and pseudostems of Hedychium coronarium Koening ), and the 0.8 g/kg HC group (6 rats, to be administered with 0.8 g/kg water-ethanol extract of leaves and pseudostems of Hedychium coronarium Koening ). After 30 minutes, each rat was administered with glucose at a total amount of 5 g/kg, orally (2.5 g/kg) and subcutaneously (2.5 g/kg). Blood was drawn from each animal at 30-minute intervals for the measurement of glucose (mg/DL). […]

[1] = tested on: Sprague-Dawley rats with type I diabetes; experiment: Insulin resistance test in rats with type I diabetes; assay type: in vivo, rat; conditions: 0.3 U/kg insulin subcutaneous
Experimental: Eighteen (18) Sprague-Dawley rats with type I diabetes were divided into three groups: the control group (6 rats, to be administered with 10% Tween 20), the insulin group (6 rats, to be subcutaneously administered with 0.3 U/kg insulin) and the insulin plus HC group (6 rats, to be subcutaneously administered with 0.3 U/kg insulin and orally administered with 1.0 g/kg of ethanol extract of leaves and pseudostems of Hedychium coronarium Koening ). The rats were fasted for 4 hours and then administered with 10% Tween 20 (the control group), 0.3 U/kg insulin (the insulin group) or 0.3 U/kg insulin plus 1.0 g/Kg of ethanol extract of leaves and pseudostems of Hedychium coronarium Koening (the insulin plus HC group). After administration of 2.5 g/kg glucose, blood was drawn from each animal at 30-minute intervals for the measurement of glucose (mg/DL).

| Compound | Concentration of blood glucose (Sprague-Dawley rats; Example 1, 0 min) | Concentration of blood glucose (Sprague-Dawley rats; Example 1, 30 min) | Concentration of blood glucose (Sprague-Dawley rats; Example 1, 60 min) | Concentration of blood glucose (Sprague-Dawley rats; Example 1, 90 min) | Concentration of blood glucose (Sprague-Dawley rats; Example 1, 120 min) | Concentration of blood glucose (Sprague-Dawley rats; Example 9, 0 min) | Concentration of blood glucose (Sprague-Dawley rats; Example 9, 30 min) | Concentration of blood glucose (Sprague-Dawley rats; Example 9, 60 min) | Concentration of blood glucose (Sprague-Dawley rats; Example 9, 90 min) | Concentration of blood glucose (Sprague-Dawley rats; Example 9, 120 min) | Concentration of blood glucose ([1]; 0 min) | Concentration of blood glucose ([1]; 30 min) | Concentration of blood glucose ([1]; 60 min) | Concentration of blood glucose ([1]; 90 min) |
| --- | --- | --- | --- | --- | --- | --- | --- | --- | --- | --- | --- | --- | --- | --- |
| COc1ccc(Cl)cc1C(=O)NCCc1ccc(S(=O)(=O)NC(=O)NC2CCCCC2)cc1 [Glibenclamide, glibenclamide] | 99 ± 2.7 mg/dL | 150.7 +/− 15.2** mg/DL | 121.4 +/− 10.2** mg/DL | 101.6 +/− 6.7** mg/DL | 83.4 +/− 2.5*** mg/DL | 94.3 ± 3.8 mg/dL | 173.8 +/− 14.5*** mg/DL | 101.8 +/− 8.4*** mg/DL | 82.7 +/− 8.1*** mg/DL | 68.8 +/− 5.9*** mg/DL |  |  |  |  |
| Insulin: insulin, subcutaneously administered at 0.3 U/kg |  |  |  |  |  |  |  |  |  |  | 522.5 ± 27.1 mg/dL | 695.8 +/− 18.7** mg/DL | 593.3 +/− 16.2* mg/DL | 486.2 +/− 9.6* mg/DL |
